# Results from US4477659A, “Cephalosporin compound” (Asahi Kasei Kogyo Kabushiki Kaisha, priority 1981, dated 1984).
# Tests used:
# [1] = test system: E. Coli NIHJ-JC2; assay: MIC (Table 4); type: cell-based; details: 10^8 cells/ml; unit assumed
# Source text: (§1) | MIC Value (10^8 cells/ml)
# [2] = test system: E. Coli W3630 ps 3; assay: MIC (Table 4); type: cell-based; details: 10^8 cells/ml; unit assumed
# Source text: as §1
# [3] = test system: E. Coli W3630; assay: MIC (Table 4); type: cell-based; details: 10^8 cells/ml; unit assumed
# Source text: as §1
# [4] = test system: Klebs. pneumoniae ATCC 10031; assay: MIC (Table 4); type: cell-based; details: 10^8 cells/ml; unit assumed
# Source text: as §1
# [5] = test system: Salm enteritidis Gaertner; assay: MIC (Table 4); type: cell-based; details: 10^8 cells/ml; unit assumed
# Source text: as §1
# [6] = test system: Staph. aureus 0003; assay: MIC (Table 4); type: cell-based; details: 10^8 cells/ml; unit assumed
# Source text: as §1
# [7] = test system: Staph. aureus ATCC 6538p; assay: MIC (Table 4); type: cell-based; details: 10^8 cells/ml; unit assumed
# Source text: as §1
# [8] = test system: Staph. aureus MS 27; assay: MIC (Table 4); type: cell-based; details: 10^8 cells/ml; unit assumed
# Source text: as §1
# [9] = Absorption test, oral, rats, solution in buffer pH 7 (Example 16); type: in vivo, Male Wistar rats; details: blood, 50 mg/kg oral, rat, average of 6, read-out: Blood Concentration of the Compound
# Method: The absorption test of the compounds as obtained in Examples 1-11 were tested by the following method.
# Male Wistar rats weighing 180-250 g were fed with only water overnight. The next day the rats were orally administered with 50 mg/kg of a test compound which was dissolved in a buffer solution having pH of 7. The concentration of the compound in blood of the tested animals (one group consisting of 6 animals) was measured 0.5, 1, 2 and 4 hours after the administration by Bioassay method by using Bacillus subtilis ATCC 6633 strain as an indicator bacteria. In the measurement, an ordinary culture medium was employed, and the preparation of the standard solution and other method were carried out in according to Japanese Antibiotical Pharmaceutical Standards. Further, the concentration of the compound in blood was also measured by high performance liquid chromatography. The blood concentration shown below was an average value of each animal group.
smiles,measurement,setting,value
"CC(=O)OCC1=C(C(=O)O)N2C(=O)[C@@H](NC(=O)CSc3nc(C[C@H](N)C(=O)O)c[nH]3)[C@H]2SC1 [Example 1, 7-β-[4-(2'-amino-2'-carboxy)ethylimidazol-2-yl-thioacetamido]-3-acetoxymethyl-3-cephem-4-carboxylic acid]",MIC Value,[1],50 µg/mL
same,MIC Value,[2],100 µg/mL
same,MIC Value,[3],100 µg/mL
same,MIC Value,[4],25 µg/mL
same,MIC Value,[5],100 µg/mL
same,MIC Value,[6],12.5 µg/mL
same,MIC Value,[7],3.1 µg/mL
same,MIC Value,[8],12.5 µg/mL
same,concentration at 0.5 h,[9]; 0.5 hr.,3600 ng/mL
same,concentration at 1 h,[9]; 1 hr.,1600 ng/mL
same,concentration at 2 h,[9]; 2 hrs.,800 ng/mL
same,concentration at 4 h,[9]; 4 hrs.,500 ng/mL
